Literature values, collected in paper PMC2063170, “A phase I clinical and pharmacokinetic study of the new topoisomerase inhibitor GI147211 given as a 72-h continuous infusion” (British Journal of Cancer, 1998).

Set-up: method as in Burris et al. 1994
Details: ref Burris et al. 1994, cited from earlier work

## CC[C@@]1(O)C(=O)OCc2c1cc1n(c2=O)Cc2cc3c(CN(C)C)c(O)ccc3nc2-1 [topotecan]
Continuous infusion for 3 days every 3 weeks
  MTD: 1.6 mg m-2 day-1
plasma, 1.6 mg m-2 day-1 continuous infusion for 3 days every 3 weeks
  Css of lactone at MTD: 5.5 ng/mL
